Where two headings read alike, the source gives them in different places.
Experiments:
Salmonella TA100 strain [1] = assay type: cell-based, S. typhimurium; conditions: for The number of revertants: mean and standard deviation of 3 plates
Protocol: (§1) In this Example, the genotoxicity of a mutagen was analyzed by qualitatively and quantitatively analyzing mutation patterns in the genome of an organism exposed to the mutagen according to the analysis method of the present invention. The mutagen used was ethylnitrosourea (ENU, CAS No. 759-73-9). A Salmonella TA100 strain which is available for detection of a base pair substitution mutation and is routinely used in the Ames test was used as the organism to be exposed to the mutagen. The experiment was conducted in 3 independent operations to prepare samples (n=3).
(§2) The exposure to the mutagen was carried out in conformity to the preincubation method of the Ames test (K. Mortelmans et al., Mutat. Res. —Fundam. Mol. Mech. Mutagen., 2000, 455, 29-60). TA100 strain was inoculated to 2 mL of Nutrient Broth No. 2 (manufactured by Oxoid Ltd.) and shake-cultured at 37° C. at 180 rpm for 4 hours to obtain a preculture solution having an O.D. 660 value of 1.0 or more. ENU (54%; manufactured by Sigma-Aldrich Co. LLC) was diluted with dimethyl sulfoxide (DMSO; manufactured by Wako Pure Chemical Industries, Ltd.). One hundred μL of the ENU solution diluted into an appropriate concentration, 500 μL of a 0.1 M phosphate buffer, and 100 μL of the preculture solution were added into a test tube (ENU concentration: 67.5, 135, 270, 405, 540, 810, and 1080 μg/tube), and shake-cultured at 100 rpm for 20 minutes in a water bath of 37° C. For a control group, 100 μL of a solvent (DMSO) was added instead of the ENU solution. After the shake culture for 20 minutes, the test tube containing the culture solution was taken out of the water bath. Fifty μL of the culture solution was added to 2 mL of a nutrient broth solution dispensed in advance, and additionally cultured at 37° C. at 180 rpm for 14 hours. Then, 1 mL of the bacterial suspension was recovered and centrifuged at 7,500 rpm for 5 minutes. The supernatant was removed to recover bacterial cells.
For the Ames test, a bacterial suspension exposed to ENU under the same conditions as above was also prepared. Two mL of top agar (containing 1% NaCl, 1% agar, 0.05 mM histidine and 0.05 mM biotin) warmed to 45° C. was added thereto, and the bacterial cells were suspended by vortex. Then, the suspension was layered over a minimal glucose agar medium (Tesmedia (Registered trademark) AN; manufactured by Oriental Yeast Co., Ltd.). The obtained plate was cultured at 37° C. for 48 hours. Then, observed colonies were counted.
The data was indicated by a mean and standard deviation of measurement values from 3 plates.

Salmonella TA100 strain [2] = assay: Mutation analysis by high-throughput sequencing of total DNA of TA100 strain exposed to mutagen; assay type: cell-based, S. typhimurium
Protocol: as §1, §2
From the bacterial cells obtained in the paragraph 1., total DNA was recovered using DNeasy Blood & Tissue Kit (manufactured by Qiagen N.V.) according to the recommended protocol.
The total DNA solutions recovered in the paragraph 2. from the control group and the ENU treatment groups were sequenced using a next-generation sequencer HiSeq 2500 (manufactured by Illumina, Inc.) according to the standard protocol. In this operation, DNA was fragmented into an average length of approximately […] by ultrasonic treatment. Adaptors were added to both ends of each fragment. The fragments were sequenced at a read length of 2×125 bp. 5.0-Gbp nucleotide sequence information per sample was obtained on average.
The editing of read sequences obtained by the sequencing and mutation analysis were conducted using Cutadapt software, PEAR software, Bowtie 2 software, Samtools software, and a program created using a programming language Python according to the conceptual diagram of analysis flow shown in Schematic diagram 2 in the same way as in Example 1. In this Example, PCR duplicates were removed using Picard tools (broadinstitute.github.io/picard/) after mapping using the Bowtie 2 software.
A reference sequence for the mapping using the Bowtie 2 software was constructed on the basis of the genomic sequence of the S. typhimurium TA100 strain. First, DNA was extracted from the TA100 strain and sequenced using a next-generation sequencer HiSeq 2500 (manufactured by Illumina, Inc.) according to the standard protocol. In this operation, the DNA was fragmented into an average length of approximately 300 bp by ultrasonic treatment. Adaptors were added to both ends of each fragment. The fragments were sequenced at a read length of 2×125 bp. The obtained read sequences were mapped to the genomic sequence of a S. typhimurium LT-2 strain, a pSLT plasmid sequence (GCA000006945.2), and a R46 plasmid sequence (NC_003292.1), followed by mutation detection using Samtools software. […]

[3] = ENU 540 μg/tube, control subtracted

CCN(N=O)C(N)=O [ENU, ethylnitrosourea]
The number of revertants (Salmonella TA100 strain [1]; ENU 67.5 μg/plate): 258 ± 2.5 | The number of revertants (Salmonella TA100 strain [1]; ENU 135 μg/plate): 659 ± 113.9 | The number of revertants (Salmonella TA100 strain [1]; ENU 270 μg/plate): 3320 ± 734.4 | The number of revertants (Salmonella TA100 strain [1]; ENU 405 μg/plate): 4994 ± 455.6 | The number of revertants (Salmonella TA100 strain [1]; ENU 540 μg/plate): 5051 ± 173.0 | The number of revertants (Salmonella TA100 strain [1]; ENU 810 μg/plate, growth inhibition on plate): 3102 ± 883.0 | The number of revertants (Salmonella TA100 strain [1]; ENU 1080 μg/plate, growth inhibition on plate): 503 ± 190.9 | Change in the number of revertants by exposure (Salmonella TA100 strain [1]; ENU 67.5 to 1080 μg/plate against DMSO): Increase in the number of revertants was found | Increased mutation frequencies by sequence context analysis (96 mutation types), C>T mutation (Salmonella TA100 strain [2]; 3-base context, FIG. 7 and FIG. 8): larger increase in mutation frequency was found in a context with a pyrimidine base (C or T) located at 3′ side to the C | Ratio of AT > CG mutation pattern to the whole of increased mutation frequencies (mutation spectrum) (Salmonella TA100 strain [2]; [3]): 2.36% | Ratio of AT > GC mutation pattern to the whole of increased mutation frequencies (mutation spectrum) (Salmonella TA100 strain [2]; [3]): 12.4% | Ratio of AT > TA mutation pattern to the whole of increased mutation frequencies (mutation spectrum) (Salmonella TA100 strain [2]; [3]): 11.5% | Ratio of GC > AT mutation pattern to the whole of increased mutation frequencies (mutation spectrum) (Salmonella TA100 strain [2]; [3]): 73.7% | Increased mutation frequencies of GC base pair mutation patterns (Salmonella TA100 strain [2]; ENU 135, 270, 405 and 540 μg/tube, FIG. 4A): increase in the frequency of GC>AT mutation was found | Increased mutation frequencies of AT base pair mutation patterns (Salmonella TA100 strain [2]; ENU 135, 270, 405 and 540 μg/tube, FIG. 4B): increase in the frequencies of AT>TA and AT>GC mutations was mainly found
